Source: ChEMBL document CHEMBL5291721, “A preclinical secondary pharmacology resource illuminates target-adverse drug reaction associations of marketed drugs” (Nat Commun, 2023)

Tests used:
[1] = target: T1, Alpha-2A adrenergic receptor (Homo sapiens, UniProt P08913); format: functional, cell-based
T1 sequence (P08913 whole entry): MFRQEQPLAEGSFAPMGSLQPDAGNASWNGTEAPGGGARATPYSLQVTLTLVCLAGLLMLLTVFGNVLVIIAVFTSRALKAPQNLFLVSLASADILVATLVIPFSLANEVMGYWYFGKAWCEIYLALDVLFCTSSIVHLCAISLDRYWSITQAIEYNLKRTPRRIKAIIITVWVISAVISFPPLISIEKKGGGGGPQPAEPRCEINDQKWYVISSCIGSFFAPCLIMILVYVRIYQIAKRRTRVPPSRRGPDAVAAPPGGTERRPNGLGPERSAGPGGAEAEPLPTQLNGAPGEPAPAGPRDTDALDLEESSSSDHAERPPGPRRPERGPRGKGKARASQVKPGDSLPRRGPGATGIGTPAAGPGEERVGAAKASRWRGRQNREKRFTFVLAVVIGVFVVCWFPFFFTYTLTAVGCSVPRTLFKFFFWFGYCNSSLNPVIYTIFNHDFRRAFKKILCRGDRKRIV

Vasopressin V1a receptor = Vasopressin V1a receptor (Homo sapiens, UniProt P37288)
Chain of Vasopressin V1a receptor (P37288 whole entry): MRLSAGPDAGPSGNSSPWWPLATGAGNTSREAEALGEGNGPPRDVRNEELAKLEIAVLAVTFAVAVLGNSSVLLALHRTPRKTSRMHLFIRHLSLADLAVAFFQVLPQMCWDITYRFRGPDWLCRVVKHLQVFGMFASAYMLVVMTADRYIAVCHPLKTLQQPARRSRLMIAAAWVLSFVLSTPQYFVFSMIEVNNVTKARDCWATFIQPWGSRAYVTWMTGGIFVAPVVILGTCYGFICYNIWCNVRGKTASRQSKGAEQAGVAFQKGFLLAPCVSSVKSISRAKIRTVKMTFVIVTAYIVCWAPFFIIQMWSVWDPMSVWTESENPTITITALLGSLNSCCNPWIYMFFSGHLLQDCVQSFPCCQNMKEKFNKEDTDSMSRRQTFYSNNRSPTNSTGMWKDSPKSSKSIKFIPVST

D(1A) dopamine receptor = D(1A) dopamine receptor (Homo sapiens, UniProt P21728); format: functional, cell-based
Chain of D(1A) dopamine receptor (P21728 whole entry): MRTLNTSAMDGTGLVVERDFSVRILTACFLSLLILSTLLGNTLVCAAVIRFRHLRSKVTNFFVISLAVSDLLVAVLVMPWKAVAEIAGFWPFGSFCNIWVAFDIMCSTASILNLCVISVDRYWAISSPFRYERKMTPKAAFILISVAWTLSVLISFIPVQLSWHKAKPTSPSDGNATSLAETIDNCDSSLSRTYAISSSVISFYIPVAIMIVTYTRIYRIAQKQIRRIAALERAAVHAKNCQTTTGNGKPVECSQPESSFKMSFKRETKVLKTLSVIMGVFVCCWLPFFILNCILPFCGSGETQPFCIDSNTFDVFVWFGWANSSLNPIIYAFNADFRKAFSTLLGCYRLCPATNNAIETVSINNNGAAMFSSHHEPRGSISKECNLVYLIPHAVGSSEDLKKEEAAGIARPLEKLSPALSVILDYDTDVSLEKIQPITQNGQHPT

Endothelin-1 receptor = target: T2, Endothelin-1 receptor (Homo sapiens, UniProt P25101)
T2 sequence (P25101 whole entry): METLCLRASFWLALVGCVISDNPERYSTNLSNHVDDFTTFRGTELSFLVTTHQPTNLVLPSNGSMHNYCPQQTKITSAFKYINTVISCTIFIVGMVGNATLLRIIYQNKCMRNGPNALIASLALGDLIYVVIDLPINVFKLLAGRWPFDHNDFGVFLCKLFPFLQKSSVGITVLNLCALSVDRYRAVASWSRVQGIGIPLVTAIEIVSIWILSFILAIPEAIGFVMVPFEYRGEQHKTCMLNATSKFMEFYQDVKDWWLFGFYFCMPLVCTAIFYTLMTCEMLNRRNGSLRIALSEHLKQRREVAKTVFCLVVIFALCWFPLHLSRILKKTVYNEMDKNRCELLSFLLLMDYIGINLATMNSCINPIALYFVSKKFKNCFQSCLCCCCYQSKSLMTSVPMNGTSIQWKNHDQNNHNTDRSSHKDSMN

[2] = target: Gamma-aminobutyric acid receptor subunit alpha-1 (Rattus norvegicus, UniProt P62813); format: functional
Chain of Gamma-aminobutyric acid receptor subunit alpha-1 (P62813 whole entry): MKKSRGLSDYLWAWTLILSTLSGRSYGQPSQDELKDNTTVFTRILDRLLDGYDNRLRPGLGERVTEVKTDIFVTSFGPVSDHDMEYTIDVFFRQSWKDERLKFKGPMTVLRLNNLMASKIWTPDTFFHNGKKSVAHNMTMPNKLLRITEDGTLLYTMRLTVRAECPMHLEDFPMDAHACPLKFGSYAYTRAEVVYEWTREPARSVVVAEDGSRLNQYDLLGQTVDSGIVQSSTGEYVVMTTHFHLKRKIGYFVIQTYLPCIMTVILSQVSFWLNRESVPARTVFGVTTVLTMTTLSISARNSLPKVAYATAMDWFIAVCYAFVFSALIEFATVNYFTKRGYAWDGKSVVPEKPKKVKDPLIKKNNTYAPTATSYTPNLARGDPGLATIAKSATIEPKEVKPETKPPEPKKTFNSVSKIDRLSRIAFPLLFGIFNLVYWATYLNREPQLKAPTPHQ

[3] = target: T3, 5-hydroxytryptamine receptor 1A (Homo sapiens, UniProt P08908); format: functional, cell-based
T3 sequence (P08908 whole entry): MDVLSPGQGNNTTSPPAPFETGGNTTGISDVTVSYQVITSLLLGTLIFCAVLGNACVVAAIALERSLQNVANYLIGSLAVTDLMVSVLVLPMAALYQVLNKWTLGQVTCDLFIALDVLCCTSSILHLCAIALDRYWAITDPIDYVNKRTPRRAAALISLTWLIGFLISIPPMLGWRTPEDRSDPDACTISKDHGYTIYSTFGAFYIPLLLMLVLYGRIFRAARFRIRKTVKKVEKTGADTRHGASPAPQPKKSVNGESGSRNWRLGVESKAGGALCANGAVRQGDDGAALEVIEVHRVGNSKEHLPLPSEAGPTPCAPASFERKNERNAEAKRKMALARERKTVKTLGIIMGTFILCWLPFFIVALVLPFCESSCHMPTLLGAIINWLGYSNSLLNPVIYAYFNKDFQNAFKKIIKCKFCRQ

[4] = target: T4, 5-hydroxytryptamine receptor 3A (Homo sapiens, UniProt P46098); format: functional
T4 sequence (P46098 whole entry): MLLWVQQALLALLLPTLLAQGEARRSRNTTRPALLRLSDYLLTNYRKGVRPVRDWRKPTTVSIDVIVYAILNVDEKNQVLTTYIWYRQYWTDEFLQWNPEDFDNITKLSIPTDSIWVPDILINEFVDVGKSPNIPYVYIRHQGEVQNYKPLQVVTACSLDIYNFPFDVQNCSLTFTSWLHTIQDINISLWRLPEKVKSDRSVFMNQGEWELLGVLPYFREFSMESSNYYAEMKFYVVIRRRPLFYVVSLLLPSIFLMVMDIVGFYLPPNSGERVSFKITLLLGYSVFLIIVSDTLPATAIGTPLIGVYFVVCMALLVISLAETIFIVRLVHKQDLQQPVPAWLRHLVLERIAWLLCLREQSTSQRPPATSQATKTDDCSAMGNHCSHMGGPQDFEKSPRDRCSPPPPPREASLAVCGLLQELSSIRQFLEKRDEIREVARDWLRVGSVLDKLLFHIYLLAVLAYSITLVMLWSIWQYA

[5] = target: Voltage-gated inwardly rectifying potassium channel KCNH2 (Homo sapiens, UniProt Q12809); format: functional; details: read-out: AC50
Chain of Voltage-gated inwardly rectifying potassium channel KCNH2 (Q12809 whole entry): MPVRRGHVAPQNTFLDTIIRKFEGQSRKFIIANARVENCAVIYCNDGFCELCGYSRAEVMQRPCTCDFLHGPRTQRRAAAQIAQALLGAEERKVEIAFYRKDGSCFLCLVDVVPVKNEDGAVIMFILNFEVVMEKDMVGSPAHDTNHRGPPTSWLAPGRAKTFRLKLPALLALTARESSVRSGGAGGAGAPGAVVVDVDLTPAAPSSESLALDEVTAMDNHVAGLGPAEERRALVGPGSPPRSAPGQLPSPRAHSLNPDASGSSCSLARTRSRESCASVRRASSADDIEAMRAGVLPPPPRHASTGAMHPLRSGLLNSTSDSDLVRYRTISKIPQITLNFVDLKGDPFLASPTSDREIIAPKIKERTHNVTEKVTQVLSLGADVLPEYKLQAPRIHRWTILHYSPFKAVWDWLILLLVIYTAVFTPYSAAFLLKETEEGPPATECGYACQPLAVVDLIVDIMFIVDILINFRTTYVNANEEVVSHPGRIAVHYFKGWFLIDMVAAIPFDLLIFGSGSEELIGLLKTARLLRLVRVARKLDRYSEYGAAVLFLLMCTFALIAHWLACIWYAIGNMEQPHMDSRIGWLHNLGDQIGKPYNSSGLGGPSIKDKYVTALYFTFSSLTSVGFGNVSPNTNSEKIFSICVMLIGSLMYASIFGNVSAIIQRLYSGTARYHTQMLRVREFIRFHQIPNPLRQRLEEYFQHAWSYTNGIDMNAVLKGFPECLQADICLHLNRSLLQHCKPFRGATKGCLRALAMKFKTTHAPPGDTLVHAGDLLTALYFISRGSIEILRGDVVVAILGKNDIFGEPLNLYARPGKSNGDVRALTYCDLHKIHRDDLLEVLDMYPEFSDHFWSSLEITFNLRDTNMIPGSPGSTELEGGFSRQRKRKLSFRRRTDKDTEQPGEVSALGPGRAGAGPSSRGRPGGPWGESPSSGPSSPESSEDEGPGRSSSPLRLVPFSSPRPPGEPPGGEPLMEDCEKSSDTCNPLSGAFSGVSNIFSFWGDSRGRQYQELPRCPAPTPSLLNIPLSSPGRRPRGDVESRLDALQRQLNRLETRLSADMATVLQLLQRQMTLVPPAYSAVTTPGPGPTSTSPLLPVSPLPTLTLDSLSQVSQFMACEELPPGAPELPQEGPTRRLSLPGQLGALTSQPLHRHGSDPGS

Mu-type opioid receptor = Mu-type opioid receptor (Homo sapiens, UniProt P35372); test: biochemical; format: functional
Chain of Mu-type opioid receptor (P35372 whole entry): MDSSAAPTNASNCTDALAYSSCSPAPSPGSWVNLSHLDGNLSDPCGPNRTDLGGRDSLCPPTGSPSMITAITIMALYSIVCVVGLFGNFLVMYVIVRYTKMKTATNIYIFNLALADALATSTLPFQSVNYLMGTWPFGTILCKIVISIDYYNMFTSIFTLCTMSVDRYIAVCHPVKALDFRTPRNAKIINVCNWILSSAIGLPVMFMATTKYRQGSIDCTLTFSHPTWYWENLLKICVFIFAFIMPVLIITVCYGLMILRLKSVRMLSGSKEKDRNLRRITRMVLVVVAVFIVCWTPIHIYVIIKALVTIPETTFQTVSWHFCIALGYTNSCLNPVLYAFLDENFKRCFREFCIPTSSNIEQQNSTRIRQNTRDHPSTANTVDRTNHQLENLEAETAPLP

[6] = target: T5, Equilibrative nucleoside transporter 1 (Homo sapiens, UniProt Q99808)
T5 sequence (Q99808 whole entry): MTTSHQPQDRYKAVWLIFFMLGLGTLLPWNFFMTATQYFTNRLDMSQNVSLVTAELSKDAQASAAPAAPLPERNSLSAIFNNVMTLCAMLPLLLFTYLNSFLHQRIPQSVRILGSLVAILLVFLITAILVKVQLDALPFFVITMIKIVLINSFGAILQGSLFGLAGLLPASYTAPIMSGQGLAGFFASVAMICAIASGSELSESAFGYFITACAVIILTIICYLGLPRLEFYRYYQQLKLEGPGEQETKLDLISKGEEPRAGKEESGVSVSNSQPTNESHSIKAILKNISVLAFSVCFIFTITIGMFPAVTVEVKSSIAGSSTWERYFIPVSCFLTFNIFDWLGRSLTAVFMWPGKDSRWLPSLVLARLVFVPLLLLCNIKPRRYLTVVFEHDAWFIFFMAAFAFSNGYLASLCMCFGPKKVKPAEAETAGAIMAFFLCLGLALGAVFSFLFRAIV

D(3) dopamine receptor = D(3) dopamine receptor (Homo sapiens, UniProt P35462)
Chain of D(3) dopamine receptor (P35462 whole entry): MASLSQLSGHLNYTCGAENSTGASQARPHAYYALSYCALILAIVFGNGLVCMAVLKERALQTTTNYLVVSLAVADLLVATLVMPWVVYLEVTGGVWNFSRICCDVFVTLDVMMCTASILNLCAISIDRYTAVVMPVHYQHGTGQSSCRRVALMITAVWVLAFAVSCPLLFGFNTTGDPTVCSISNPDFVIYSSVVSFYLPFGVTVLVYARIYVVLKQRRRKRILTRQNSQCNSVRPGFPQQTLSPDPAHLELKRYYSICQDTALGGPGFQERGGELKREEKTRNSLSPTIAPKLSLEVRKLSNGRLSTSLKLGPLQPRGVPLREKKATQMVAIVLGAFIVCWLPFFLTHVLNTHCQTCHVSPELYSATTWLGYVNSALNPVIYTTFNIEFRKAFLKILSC

Histamine H3 receptor = Histamine H3 receptor (Homo sapiens, UniProt Q9Y5N1)
Chain of Histamine H3 receptor (Q9Y5N1 whole entry): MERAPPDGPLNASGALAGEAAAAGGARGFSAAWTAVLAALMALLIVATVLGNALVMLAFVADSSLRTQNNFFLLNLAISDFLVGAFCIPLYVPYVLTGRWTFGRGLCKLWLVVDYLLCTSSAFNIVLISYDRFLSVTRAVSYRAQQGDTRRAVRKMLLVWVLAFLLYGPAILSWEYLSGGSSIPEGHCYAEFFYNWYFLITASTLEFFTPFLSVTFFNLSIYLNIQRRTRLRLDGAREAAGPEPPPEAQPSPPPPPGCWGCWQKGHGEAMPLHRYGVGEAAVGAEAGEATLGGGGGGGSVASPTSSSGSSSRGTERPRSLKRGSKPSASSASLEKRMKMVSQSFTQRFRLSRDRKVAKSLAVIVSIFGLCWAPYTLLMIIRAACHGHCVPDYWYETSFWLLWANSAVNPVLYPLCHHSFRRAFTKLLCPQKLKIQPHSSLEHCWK
Also: assay procedure not described here.

| SMILES | AC50 [1] [µM] | AC50 (Vasopressin V1a receptor) [µM] | AC50 (D(1A) dopamine receptor) [µM] | AC50 (Endothelin-1 receptor) [µM] | AC50 [2] [µM] | AC50 [3] [µM] | AC50 [4] [µM] | AC50 [5] [µM] | AC50 (Mu-type opioid receptor) [µM] | AC50 [6] [µM] | AC50 (D(3) dopamine receptor) [µM] | AC50 (Histamine H3 receptor) [µM] |
| --- | --- | --- | --- | --- | --- | --- | --- | --- | --- | --- | --- | --- |
| N#Cc1ccccc1-c1cc(-c2ccccn2)cn(-c2ccccc2)c1=O | > 30 | > 30 | > 30 | > 30 | > 30 | > 30 | > 30 | > 30 | > 30 | > 30 | > 30 | > 30 |
| N=C(N)NCCCCCCC(=O)NC(O)C(=O)NCCCCNCCCN (stereo not given) | > 30 | > 30 | > 30 | > 30 | > 30 | > 30 | > 30 | > 30 | > 30 | > 30 | > 30 | > 30 |
| O=C(CCCN1CCC(n2c(O)nc3ccccc32)CC1)c1ccc(F)cc1 [BENPERIDOL] | 19.2 | > 30 | > 30 | > 30 | > 30 | 0.166 | > 30 | 0.11 | > 30 | > 30 | 0.0053 | 18 |
| CCC(=O)OCC(=O)[C@@]1(OC(=O)CC)[C@@H](C)C[C@H]2[C@@H]3CCC4=CC(=O)C=C[C@]4(C)[C@@]3(F)[C@@H](O)C[C@@]21C [BETAMETHASONE DIPROPIONATE] | > 30 | > 30 | > 30 | > 30 | > 30 | > 30 | > 30 | > 30 | > 30 | > 30 | > 30 | > 30 |
| CCCCC1(CC)C(=O)NC(=O)NC1=O [BUTETHAL] | > 30 | > 30 | > 30 | > 30 | > 30 | > 30 | > 30 | > 30 | > 30 | > 30 | > 30 | > 30 |
| COCCOC(=O)C1=C(C)NC(C)=C(C(=O)OC/C=C/c2ccccc2)C1c1cccc([N+](=O)[O-])c1 (stereo not given) [CILNIDIPINE] | – | > 30 | > 30 | > 30 | > 30 | > 30 | > 30 | > 30 | > 30 | 26 | > 30 | > 30 |
| CC(C)(C)NCC(O)c1cc(Cl)c(N)c(Cl)c1 (stereo not given) [CLENBUTEROL] | > 30 | – | > 30 | > 30 | > 30 | > 30 | > 30 | > 30 | > 30 | > 30 | > 30 | > 30 |
| C#C[C@]1(O)CC[C@H]2[C@@H]3CCC4=CC(=O)CCC4=C3C=C[C@@]21CC [GESTRINONE] | 11 | > 30 | > 30 | > 30 | 8.8 | > 30 | > 30 | > 30 | > 30 | – | > 30 | > 30 |
| Nc1nc2c(c(=O)[nH]1)N(C=O)C(CNc1ccc(C(=O)N[C@@H](CCC(=O)O)C(=O)O)cc1)CN2 (stereo not given in full) [LEUCOVORIN] | > 30 | – | > 30 | > 30 | > 30 | > 30 | > 30 | > 30 | > 30 | > 30 | > 30 | > 30 |
| CCCC[C@H](C)C[C@H](O)/C=C/[C@H]1[C@H](O)CC(=O)[C@@H]1CCCC/C=C/C(=O)O [LIMAPROST] | > 30 | > 30 | > 30 | > 30 | – | > 30 | > 30 | > 30 | > 30 | > 30 | > 30 | > 30 |
| CC[N+]1(C)CCCC(OC(=O)C(O)(c2ccccc2)c2ccccc2)C1 (stereo not given) [PIPENZOLATE] | > 30 | > 30 | > 30 | > 30 | > 30 | > 30 | > 30 | 0.97 | > 30 | – | > 30 | > 30 |
| CC(=O)c1ccc2c(c1)N(CCCN1CCC(CCO)CC1)c1ccccc1S2 [PIPERACETAZINE] | – | > 30 | > 30 | > 30 | > 30 | 0.043 | > 30 | 0.5 | > 30 | > 30 | 0.017 | > 30 |
| CCCNC(C)C(=O)Nc1ccccc1C (stereo not given) [PRILOCAINE] | > 30 | – | > 30 | > 30 | > 30 | > 30 | > 30 | > 30 | > 30 | > 30 | > 30 | > 30 |
| COc1c(O[C@@H]2O[C@H](CO)[C@@H](O)[C@H](O)[C@H]2O)cc2c(c1OC)-c1ccc(SC)c(=O)cc1[C@@H](NC(C)=O)CC2 [THIOCOLCHICOSIDE] | > 30 | > 30 | > 30 | > 30 | > 30 | > 30 | > 30 | > 30 | > 30 | – | > 30 | > 30 |
| CN1c2ccccc2C(NCCCCCCC(=O)O)c2ccc(Cl)cc2S1(=O)=O (stereo not given) [TIANEPTINE] | > 30 | > 30 | > 30 | > 30 | > 30 | > 30 | > 30 | – | 2.6 | – | 20 | > 30 |
| CC(C)(C)NC[C@H](O)COc1nsnc1N1CCOCC1 [TIMOLOL] | > 30 | – | > 30 | > 30 | > 30 | 4.2 | > 30 | > 30 | > 30 | > 30 | > 30 | > 30 |
